Measured values: the NIST ThermoML archive (doi:10.1021/acs.jced.9b00507)

Assay: xn = mol fraction of the nth substance listed
Conditions: 100 kPa, Liquid; for viscosity: Concentric cylinders viscometry; for mass density: Vibrating tube method

CCCCCCn1cc[n+](C)c1.O=[N+]([O-])[O-] [1-hexyl-3-methylimidazolium nitrate] + CCCCCCO
Conditions | mass density, 293.15 K [kg/m3] | mass density, 298.15 K [kg/m3] | mass density, 303.15 K [kg/m3] | viscosity, 293.15 K [mPa·s] | viscosity, 298.15 K [mPa·s] | viscosity, 303.15 K [mPa·s] | viscosity, 308.15 K [mPa·s]
x1 = 0.0816 | 859 | 855.2 | 851.5 | 12.97 | 8.79 | 6.53 | 5.01
x1 = 0.1604 | 894.1 | 890.1 | 886.2 | 24.15 | 14.35 | 10 | 6.95
x1 = 0.2391 | 925.7 | 921.7 | 917.6 | 39.81 | 22.49 | 15.42 | 9.64
x1 = 0.3502 | 965.4 | 961.4 | 957.2 | 76.74 | 39.81 | 26 | 15.85
x1 = 0.4409 | 994.2 | 990.2 | 986.1 | 123.03 | 63.83 | 39.54 | 23.71
x1 = 0.5592 | 1027.7 | 1023.9 | 1019.9 | 207.01 | 109.9 | 66.53 | 40.36
x1 = 0.6508 | 1050.9 | 1047.2 | 1043.3 | 296.48 | 167.11 | 101.16 | 63.1
x1 = 0.7395 | 1071.2 | 1067.7 | 1063.9 | 414.95 | 243.78 | 149.28 | 95.67
x1 = 0.8502 | 1093.7 | 1090.5 | 1087 | 581.11 | 367.28 | 233.88 | 157.61
x1 = 0.9391 | 1110 | 1107.1 | 1103.7 | 707.52 | 473.22 | 315.5 | 216.41
x1 = 1 | 1120.3 | 1117.5 | 1114.3 | 804.17 | 545.25 | 369.14 | 257.59
